Test results published in US4415558A, “CRF And analogs” (The Salk Institute for Biological Studies, priority 1982, dated 1983).
[ ]: non-standard residue; d: D form. Nle = CCCC[C@H](N)C(=O)O

Columns and labels:
[1] = cited from earlier work
[2] = test system: secretion of ACTH and β-endorphin; conditions: cited from earlier work
[3] = test system: cultured rat pituitary cells; assay: Secretion of ACTH and β-endorphin by cultured rat pituitary cells; format: cell-based; conditions: for Stimulation of secretion of ACTH and β-END-LI (in words): general procedure set forth in Example III, in vitro or in vivo not specified
Procedure: (§1) The synthetic and the natural CRF were examined for their effects on the secretion of ACTH and β-endorphin in vitro and the synthetic CRF was also examined in vivo. The high potency of synthetic and natural CRF to stimulate the secretion of ACTH and β-endorphin by cultured rat pituitary cells was measured. […] The secretory response to maximal (>5 nM) concentrations of CRF is at a plateau level. In vivo doses from 30 ng to 3 μg/Kg of body weight rapidly elevated ACTH and β-endorphin-like (β-END-LI) secretions 5-20 fold.

[4] = Blood pressure in rats (mean carotid blood pressure, urethane-anesthetized rat); format: in vivo; conditions: general procedure set forth in Example III
Procedure: (§2) Plasma levels of ACTH and β-END-LI are elevated for at least 5-20 minutes following the intravenous administration of CRF to nembutal-anesthesized male rats and to quiescent male or female rats with indwelling intravenous cannulae. […] Mean cartoid blood pressure in a urethane-anesthesized rat fell from 87 to 72±2 mm Hg and remained at that level for 30 minutes following an injection equal to 3 μg CRF/Kg body weight; the subsequent administration of an injection equal to 30 μg CRF/Kg body weight lowered mean blood pressure to 42±3 mm Hg for more than 2 hours.

[5] = test system: ACTH and β-END-LI secretion; assay: ACTH and β-END-LI secretion in vivo in rat preparations; conditions: in vivo
Procedure: as §1, §2

CC[C@H](C)[C@H](NC(=O)[C@@H](NC(=O)[C@H](CC(=O)O)NC(=O)[C@H](CC(C)C)NC(=O)[C@H](CC(C)C)NC(=O)[C@H](CC(C)C)NC(=O)[C@H](CCCNC(=N)N)NC(=O)[C@H](CC(N)=O)NC(=O)[C@H](CC(N)=O)NC(=O)[C@H](C)NC(=O)[C@H](C)NC(=O)[C@H](CCC(N)=O)NC(=O)[C@H](CCC(N)=O)NC(=O)[C@H](CCCCN)NC(=O)[C@H](CCC(=O)O)NC(=O)[C@H](CCCCN)NC(=O)[C@H](CCC(=O)O)NC(=O)[C@H](CCC(N)=O)NC(=O)[C@H](CCCCN)NC(=O)[C@H](CCC(=O)O)NC(=O)[C@@H](NC(=O)[C@H](CCC(=O)O)NC(=O)[C@@H](NC(=O)[C@H](CCSC)NC(=O)[C@H](CCCCN)NC(=O)[C@H](CCCNC(=N)N)NC(=O)[C@H](CC(C)C)NC(=O)[C@H](CC(C)C)NC(=O)[C@H](CCC(=O)O)NC(=O)[C@H](CC(C)C)NC(=O)[C@H](CO)NC(=O)[C@H](CC(C)C)NC(=O)[C@H](CC(=O)O)NC(=O)[C@@H](NC(=O)[C@H](CO)NC(=O)[C@@H](NC(=O)[C@@H]1CCCN1C(=O)[C@@H]1CCCN1C(=O)CNC(=O)[C@@H]1CCC(=O)N1)[C@@H](C)CC)[C@@H](C)CC)[C@@H](C)CC)[C@@H](C)CC)[C@@H](C)O)C(N)=O [Sauvagine]
Lowering blood pressure in mammals (reported) [1]: lowering blood pressure in mammals
Stimulating the secretion of ACTH and β-endorphin (reported) [2]: stimulating the secretion of ACTH and β-endorphin

CC[C@H](C)[C@H](NC(=O)[C@H](CC(=O)O)NC(=O)[C@H](CC(C)C)NC(=O)[C@H](CC(C)C)NC(=O)[C@H](CCCCN)NC(=O)[C@H](CCCNC(=N)N)NC(=O)[C@H](CC(N)=O)NC(=O)[C@H](CO)NC(=O)[C@H](Cc1c[nH]cn1)NC(=O)[C@H](C)NC(=O)[C@H](CCC(N)=O)NC(=O)[C@H](CCC(N)=O)NC(=O)[C@H](C)NC(=O)[C@H](CC(C)C)NC(=O)[C@H](CCC(N)=O)NC(=O)[C@H](CC(=O)O)NC(=O)[C@H](C)NC(=O)[C@H](CCCCN)NC(=O)[C@@H](NC(=O)[C@H](CCSC)NC(=O)[C@H](CCC(=O)O)NC(=O)[C@H](CC(C)C)NC(=O)[C@@H](NC(=O)[C@H](CCC(=O)O)NC(=O)[C@H](CCCNC(=N)N)NC(=O)[C@H](CC(C)C)NC(=O)[C@H](CC(C)C)NC(=O)[C@H](Cc1c[nH]cn1)NC(=O)[C@H](Cc1ccccc1)NC(=O)[C@@H](NC(=O)[C@H](CC(C)C)NC(=O)[C@H](CC(=O)O)NC(=O)[C@H](CC(C)C)NC(=O)[C@H](CO)NC(=O)[C@@H](NC(=O)[C@@H]1CCCN1C(=O)[C@@H]1CCCN1)[C@@H](C)CC)[C@@H](C)O)C(C)C)[C@@H](C)O)C(=O)N[C@@H](C)C(N)=O [[des Ser^1 -Gln^2 -Glu^3]-CRF]
Stimulation of secretion of ACTH and β-END-LI (in words) [3]: stimulates the secretion of ACTH and β-END-LI
Lowering of blood pressure (in words) [4]: very significant lowering of blood pressure

CC[C@H](C)[C@H](NC(=O)[C@@H](NC(=O)[C@H](CC(=O)O)NC(=O)[C@H](CC(C)C)NC(=O)[C@H](CC(C)C)NC(=O)[C@H](CC(C)C)NC(=O)[C@H](CCCNC(=N)N)NC(=O)[C@H](CC(N)=O)NC(=O)[C@H](CC(N)=O)NC(=O)[C@H](C)NC(=O)[C@H](C)NC(=O)[C@H](CCC(N)=O)NC(=O)[C@H](CCC(N)=O)NC(=O)[C@H](CCCCN)NC(=O)[C@H](CCC(=O)O)NC(=O)[C@H](CCCCN)NC(=O)[C@H](CCC(=O)O)NC(=O)[C@H](CCC(N)=O)NC(=O)[C@H](CCCCN)NC(=O)[C@H](CCC(=O)O)NC(=O)[C@@H](NC(=O)[C@H](CCC(=O)O)NC(=O)[C@@H](NC(=O)[C@H](CCSC)NC(=O)[C@H](CCCCN)NC(=O)[C@H](CCCNC(=N)N)NC(=O)[C@H](CC(C)C)NC(=O)[C@H](CC(C)C)NC(=O)[C@H](CCC(=O)O)NC(=O)[C@H](CC(C)C)NC(=O)[C@H](CO)NC(=O)[C@H](CC(C)C)NC(=O)[C@H](CC(=O)O)NC(=O)[C@@H](NC(=O)[C@H](CO)NC(=O)[C@@H](NC(=O)[C@@H]1CCCN1C(=O)[C@@H]1CCCN1)[C@@H](C)CC)[C@@H](C)CC)[C@@H](C)CC)[C@@H](C)CC)[C@@H](C)O)C(N)=O [[des pGlu^1 -Gly^2]-sauvagine]
Stimulation of secretion of ACTH and β-END-LI (in words) [3]: stimulates the secretion of ACTH and β-END-LI
Lowering of blood pressure (in words) [4]: very significant lowering of blood pressure

CC[C@H](C)[C@H](NC(=O)[C@H](CC(=O)O)NC(=O)[C@H](CC(C)C)NC(=O)[C@H](CC(C)C)NC(=O)[C@H](CCCCN)NC(=O)[C@H](CCCNC(=N)N)NC(=O)[C@H](CC(N)=O)NC(=O)[C@H](CO)NC(=O)[C@H](Cc1c[nH]cn1)NC(=O)[C@H](C)NC(=O)[C@H](CCC(N)=O)NC(=O)[C@H](CCC(N)=O)NC(=O)[C@H](C)NC(=O)[C@H](CC(C)C)NC(=O)[C@H](CCC(N)=O)NC(=O)[C@H](CC(=O)O)NC(=O)[C@H](C)NC(=O)[C@H](CCCCN)NC(=O)[C@@H](NC(=O)[C@H](CCSC)NC(=O)[C@H](CCC(=O)O)NC(=O)[C@H](CC(C)C)NC(=O)[C@@H](NC(=O)[C@H](CCC(=O)O)NC(=O)[C@H](CCCNC(=N)N)NC(=O)[C@H](CC(C)C)NC(=O)[C@H](CC(C)C)NC(=O)[C@H](Cc1c[nH]cn1)NC(=O)[C@H](Cc1ccccc1)NC(=O)[C@@H](NC(=O)[C@H](CC(C)C)NC(=O)[C@H](CC(=O)O)NC(=O)[C@H](CC(C)C)NC(=O)[C@H](CO)NC(=O)[C@@H](NC(=O)[C@@H]1CCCN1C(=O)[C@@H]1CCCN1C(=O)[C@H](CCC(=O)O)NC(=O)[C@H](CCC(N)=O)NC(=O)[C@@H](N)CO)[C@@H](C)CC)[C@@H](C)O)C(C)C)[C@@H](C)O)C(=O)N[C@@H](C)C(N)=O [natural CRF]
Stimulation of ACTH and β-endorphin secretion in vitro (in words) [3]: high potency
Stimulation of ACTH and β-endorphin secretion in vitro (in words) ([3]; listed as isolated CRF): stimulate ACTH and β-endorphin activies
Stimulation of ACTH and β-END-LI secretion in vivo (in words) [5]: stimulate ACTH and β-endorphin activies

H-SQEPPISIDLSFHLLREVLEMTKADQLAQQAHNNRKLLDIA-NH2 [[Ile^8, Ser^11, Asn^33]-CRF]
Stimulation of secretion of ACTH and β-END-LI (in words) [3]: stimulates the secretion of ACTH and β-END-LI
Lowering of blood pressure (in words) [4]: very significant lowering of blood pressure

H-SQEPPISLDLTFHLLREVIEMTKAEQLAQQAHSNRKLLDIA-NH2 [[Ile^19, Glu^25]-CRF]
Stimulation of secretion of ACTH and β-END-LI (in words) [3]: stimulates the secretion of ACTH and β-END-LI
Lowering of blood pressure (in words) [4]: very significant lowering of blood pressure

H-SQEPPISLDLTFHLLREVLEATKADQLAQQAHTNRKLLDI[Nle]-NH2 [[Ala^21, Thr^33, Nle^41]-CRF]
Stimulation of secretion of ACTH and β-END-LI (in words) [3]: stimulates the secretion of ACTH and β-END-LI
Lowering of blood pressure (in words) [4]: very significant lowering of blood pressure

H-SQEPPISLDLTFHLLREVLE[Nle]TKADQLAQQAYSNRKLLDIA-NH2 [[Nle^21, Tyr^32]-CRF]
Stimulation of secretion of ACTH and β-END-LI (in words) [3]: stimulates the secretion of ACTH and β-END-LI
Lowering of blood pressure (in words) [4]: very significant lowering of blood pressure to a greater extent than CRF

H-SQEPPISLDLTFYLLREVLE[Nle]TKADQLAQQAHSNRKLLDIA-NH2 [[Tyr^13, Nle^21]-CRF]
Stimulation of secretion of ACTH and β-END-LI (in words) [3]: stimulates the secretion of ACTH and β-END-LI
Lowering of blood pressure (in words) [4]: very significant lowering of blood pressure to a greater extent than CRF
